Like-named read-outs stand apart in the source and are kept apart here.

The test relates to rabbit isolated gastric glands. As to the kind of experiment: aminopyrine accumulation in rabbit isolated gastric glands (anti-secretory activity, H+/K+ ATPase inhibitors). The test is classed as cell-based. The note with it: 10^-4 M, % inhibition of the maximum response to the secretagogue; for inhibition at 100 µM: Oryctolagus cuniculus. The protocol:
Compounds of formula I were tested for anti-secretory activity by their ability to inhibit the highly specific proton transporting enzyme H^+ /K^+ ATPase.
Potential H^+ /K^+ ATPase inhibitors were evaluated by a technique involving the measurements of aminopyrine accumulation in rabbit isolated gastric glands. Aminopyrine accumulates in acid-secreting cells; therefore, uptake of aminopyrine is increased by secretagogues and an inhibitor of acid secretion will reduce the response to one or more secretagogues depending upon its site of action. […] The following test procedure is used:
Rabbit gastric glands are isolated from gastric mucosa from the corpus region of the stomach by a method based on one described by Berglindh T., Obrink, K. J., Acta Physiol. Scand.
Results are expressed as the % inhibition of the maximum response to the secretagogue induced by the test compound. An inhibitor of H^+ /K^+ ATPase would be expected to reduce the response to both secretagogues.

The mark [1] stands for this setting: 14C-aminopyrine uptake stimulated by DBcAMP, read-out: % Inhibition to stimulation by DBcAMP.
Where [2] appears, read: 14C-aminopyrine uptake stimulated by high K+, read-out: % Inhibition to stimulation by K+.

Regarding `CCc1ccc(-c2cn3c(nc4ccccc43)s2)nc1` [2-(2-(5-Ethylpyridyl))thiazolo[3,2-a]-benzaimidazole], the inhibition at 100 µM came to 56% under setting [1] and 142% under setting [2].
As for “6-Ethoxy-2-(2-pyridyl)thiazolo[3,2-a]-benzimidazole and 7-ethoxy-2-(2-pyridyl)thiazolo[3,2-a]benzimidazole”, the “% Inhibition to stimulation by DBcAMP” value (14C-aminopyrine uptake stimulated by DBcAMP) is reported as 68%. The “% Inhibition to stimulation by K+” value (14C-aminopyrine uptake stimulated by high K+) was 162%.
Turning to `c1ccc(-c2cccc(-c3cn4c(nc5ccccc54)s3)n2)cc1` [2-[2-(6-Phenylpyridyl)]thiazolo[3,2-a]benzimidazole], the inhibition at 100 µM came to 22% under setting [1] and 381% under setting [2].

The term inhibition denotes the change of the read-out against control, counted positive when it falls.
